According to the NIST ThermoML archive (doi:10.1021/je060271a):
± gives the expanded uncertainty stated by the source.

Conditions: 343.16 K, Liquid, Vibrating tube method

## CCCCCC(=O)OCC(COC(=O)CCCCC)(COC(=O)CCCCC)COC(=O)CCCCC [pentaerythritol tetrahexanoate]
27885 kPa
  mass density: 976.9 ± 1.2 kg/m3
27922 kPa
  mass density: 976.9 ± 1.2 kg/m3
27953 kPa
  mass density: 976.9 ± 1.2 kg/m3
27990 kPa
  mass density: 976.9 ± 1.2 kg/m3
28022 kPa
  mass density: 977 ± 1.2 kg/m3
28053 kPa
  mass density: 977 ± 1.2 kg/m3
28081 kPa
  mass density: 976.9 ± 1.2 kg/m3
28111 kPa
  mass density: 977 ± 1.2 kg/m3
28135 kPa
  mass density: 977 ± 1.2 kg/m3
28160 kPa
  mass density: 977.1 ± 1.2 kg/m3
28189 kPa
  mass density: 977.2 ± 1.2 kg/m3
28213 kPa
  mass density: 977 ± 1.2 kg/m3
28238 kPa
  mass density: 977.1 ± 1.2 kg/m3
28267 kPa
  mass density: 977 ± 1.2 kg/m3
28292 kPa
  mass density: 977.1 ± 1.2 kg/m3
28613 kPa
  mass density: 977.3 ± 1.2 kg/m3
28638 kPa
  mass density: 977.3 ± 1.2 kg/m3
28664 kPa
  mass density: 977.3 ± 1.2 kg/m3
28694 kPa
  mass density: 977.4 ± 1.2 kg/m3
28719 kPa
  mass density: 977.5 ± 1.2 kg/m3
28745 kPa
  mass density: 977.4 ± 1.2 kg/m3
28777 kPa
  mass density: 977.5 ± 1.2 kg/m3
28799 kPa
  mass density: 977.4 ± 1.2 kg/m3
28830 kPa
  mass density: 977.4 ± 1.2 kg/m3
28855 kPa
  mass density: 977.4 ± 1.2 kg/m3
28886 kPa
  mass density: 977.6 ± 1.2 kg/m3
28912 kPa
  mass density: 977.6 ± 1.2 kg/m3
28938 kPa
  mass density: 977.6 ± 1.2 kg/m3
28969 kPa
  mass density: 977.3 ± 1.2 kg/m3
28995 kPa
  mass density: 977.6 ± 1.2 kg/m3
29021 kPa
  mass density: 977.5 ± 1.2 kg/m3
29048 kPa
  mass density: 977.7 ± 1.2 kg/m3
29360 kPa
  mass density: 977.8 ± 1.2 kg/m3
29386 kPa
  mass density: 977.8 ± 1.2 kg/m3
29419 kPa
  mass density: 977.8 ± 1.2 kg/m3
29533 kPa
  mass density: 977.9 ± 1.2 kg/m3
29560 kPa
  mass density: 977.9 ± 1.2 kg/m3
29588 kPa
  mass density: 978 ± 1.2 kg/m3
29620 kPa
  mass density: 977.8 ± 1.2 kg/m3
29648 kPa
  mass density: 977.9 ± 1.2 kg/m3
29680 kPa
  mass density: 978 ± 1.2 kg/m3
29708 kPa
  mass density: 978 ± 1.2 kg/m3
29735 kPa
  mass density: 978 ± 1.2 kg/m3
29824 kPa
  mass density: 978 ± 1.2 kg/m3
30097 kPa
  mass density: 978.2 ± 1.2 kg/m3
30127 kPa
  mass density: 978.2 ± 1.2 kg/m3
30157 kPa
  mass density: 978.2 ± 1.2 kg/m3
30193 kPa
  mass density: 978.4 ± 1.2 kg/m3
30518 kPa
  mass density: 978.6 ± 1.2 kg/m3
30540 kPa
  mass density: 978.4 ± 1.2 kg/m3
30566 kPa
  mass density: 978.7 ± 1.2 kg/m3
30588 kPa
  mass density: 978.5 ± 1.2 kg/m3
30610 kPa
  mass density: 978.5 ± 1.2 kg/m3
30637 kPa
  mass density: 978.6 ± 1.2 kg/m3
30659 kPa
  mass density: 978.6 ± 1.2 kg/m3
30682 kPa
  mass density: 978.8 ± 1.2 kg/m3
30704 kPa
  mass density: 978.7 ± 1.2 kg/m3
30731 kPa
  mass density: 978.6 ± 1.2 kg/m3
30753 kPa
  mass density: 978.7 ± 1.2 kg/m3
30776 kPa
  mass density: 978.7 ± 1.2 kg/m3
30798 kPa
  mass density: 978.7 ± 1.2 kg/m3
30825 kPa
  mass density: 978.7 ± 1.2 kg/m3
30848 kPa
  mass density: 978.5 ± 1.2 kg/m3
30871 kPa
  mass density: 978.7 ± 1.2 kg/m3
30894 kPa
  mass density: 979 ± 1.2 kg/m3
30917 kPa
  mass density: 978.8 ± 1.2 kg/m3
30944 kPa
  mass density: 978.8 ± 1.2 kg/m3
30966 kPa
  mass density: 978.8 ± 1.2 kg/m3
30993 kPa
  mass density: 978.8 ± 1.2 kg/m3
31016 kPa
  mass density: 978.8 ± 1.2 kg/m3
31038 kPa
  mass density: 978.8 ± 1.2 kg/m3
31065 kPa
  mass density: 978.9 ± 1.2 kg/m3
31088 kPa
  mass density: 978.8 ± 1.2 kg/m3
31111 kPa
  mass density: 978.8 ± 1.2 kg/m3
31134 kPa
  mass density: 978.8 ± 1.2 kg/m3
31161 kPa
  mass density: 978.9 ± 1.2 kg/m3
31185 kPa
  mass density: 979 ± 1.2 kg/m3
31208 kPa
  mass density: 978.9 ± 1.2 kg/m3
31236 kPa
  mass density: 978.9 ± 1.2 kg/m3
31259 kPa
  mass density: 979 ± 1.2 kg/m3
31282 kPa
  mass density: 979 ± 1.2 kg/m3
31304 kPa
  mass density: 979.1 ± 1.2 kg/m3
31332 kPa
  mass density: 979 ± 1.2 kg/m3
31355 kPa
  mass density: 979 ± 1.2 kg/m3
31382 kPa
  mass density: 979.1 ± 1.2 kg/m3
31405 kPa
  mass density: 979 ± 1.2 kg/m3
31429 kPa
  mass density: 979.1 ± 1.2 kg/m3
31480 kPa
  mass density: 979.2 ± 1.2 kg/m3
31504 kPa
  mass density: 979.1 ± 1.2 kg/m3
31527 kPa
  mass density: 979.2 ± 1.2 kg/m3
31555 kPa
  mass density: 979.3 ± 1.2 kg/m3
31578 kPa
  mass density: 979.3 ± 1.2 kg/m3
31606 kPa
  mass density: 979.3 ± 1.2 kg/m3
31630 kPa
  mass density: 979.2 ± 1.2 kg/m3
31654 kPa
  mass density: 979.2 ± 1.2 kg/m3
31682 kPa
  mass density: 979.3 ± 1.2 kg/m3
31706 kPa
  mass density: 979.3 ± 1.2 kg/m3
31729 kPa
  mass density: 979.3 ± 1.2 kg/m3
31758 kPa
  mass density: 979.3 ± 1.2 kg/m3
31782 kPa
  mass density: 979.3 ± 1.2 kg/m3
31806 kPa
  mass density: 979.3 ± 1.2 kg/m3
31830 kPa
  mass density: 979.3 ± 1.2 kg/m3
31859 kPa
  mass density: 979.3 ± 1.2 kg/m3
31883 kPa
  mass density: 979.4 ± 1.2 kg/m3
31912 kPa
  mass density: 979.4 ± 1.2 kg/m3
31936 kPa
  mass density: 979.3 ± 1.2 kg/m3
31960 kPa
  mass density: 979.3 ± 1.2 kg/m3
31984 kPa
  mass density: 979.4 ± 1.2 kg/m3
32013 kPa
  mass density: 979.5 ± 1.2 kg/m3
32037 kPa
  mass density: 979.6 ± 1.2 kg/m3
32061 kPa
  mass density: 979.4 ± 1.2 kg/m3
32090 kPa
  mass density: 979.4 ± 1.2 kg/m3
32114 kPa
  mass density: 979.5 ± 1.2 kg/m3
32144 kPa
  mass density: 979.6 ± 1.2 kg/m3
32169 kPa
  mass density: 979.6 ± 1.2 kg/m3
32193 kPa
  mass density: 979.4 ± 2 kg/m3
32217 kPa
  mass density: 979.6 ± 1.2 kg/m3
32247 kPa
  mass density: 979.8 ± 1.2 kg/m3
32272 kPa
  mass density: 979.6 ± 1.2 kg/m3
32296 kPa
  mass density: 979.7 ± 1.2 kg/m3
32326 kPa
  mass density: 979.6 ± 1.2 kg/m3
32351 kPa
  mass density: 979.7 ± 1.2 kg/m3
32381 kPa
  mass density: 979.7 ± 1.2 kg/m3
32406 kPa
  mass density: 979.6 ± 1.2 kg/m3
32431 kPa
  mass density: 979.6 ± 1.2 kg/m3
32456 kPa
  mass density: 979.8 ± 1.2 kg/m3
32486 kPa
  mass density: 979.8 ± 1.2 kg/m3
32511 kPa
  mass density: 979.7 ± 1.2 kg/m3
32536 kPa
  mass density: 979.7 ± 1.2 kg/m3
32562 kPa
  mass density: 979.8 ± 1.2 kg/m3
32592 kPa
  mass density: 979.9 ± 1.2 kg/m3
32617 kPa
  mass density: 979.8 ± 1.2 kg/m3
32647 kPa
  mass density: 979.9 ± 1.2 kg/m3
32672 kPa
  mass density: 979.8 ± 1.2 kg/m3
32698 kPa
  mass density: 979.8 ± 1.2 kg/m3
32724 kPa
  mass density: 980 ± 1.2 kg/m3
32755 kPa
  mass density: 979.9 ± 1.2 kg/m3
32780 kPa
  mass density: 980 ± 1.2 kg/m3
32806 kPa
  mass density: 979.9 ± 1.2 kg/m3
32837 kPa
  mass density: 979.9 ± 1.2 kg/m3
32863 kPa
  mass density: 980 ± 1.2 kg/m3
32889 kPa
  mass density: 980 ± 1.2 kg/m3
32920 kPa
  mass density: 979.8 ± 1.2 kg/m3
32945 kPa
  mass density: 980 ± 1.2 kg/m3
32971 kPa
  mass density: 980 ± 1.2 kg/m3
